Values joined by “and” are separate entries in the source; they are usually repeats but may differ in a detail not shown here. Equal values may be shown once.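 How tested: cells in 96-well plates exposed to compound for 48 hours at five concentrations. Abbreviation: GI50, concentration required for 50% inhibition of growth. The concentration for full growth arrest is given as TGI.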

TGI and GI50 data for 46 compounds are collected here from PubChem BioAssay (NCI).

The first test concerns M19-MEL melanoma. As to the kind of experiment: NCI tumour cell line growth inhibition, 48 h.
As to `O=C(c1ccccc1)[C@H]1Nc2ccc(Cl)cc2[C@H]2CCC[C@@H]12`, the TGI was greater than 100 µM.

On to `COc1ccc2nc(NC(=O)C(=O)CC(=O)c3ccc([N+](=O)[O-])cc3)sc2c1`, for which the TGI was greater than 100 µM.

Compound `CC(=O)Nc1ccc(C2CC(c3ccc([N+](=O)[O-])cc3)=Nc3ccccc3S2=O)cc1` (centres undefined) had a TGI of 38 µM.

The compound `COc1cc(/C=C2\NC(=O)C(Cc3cc(OC)c(OC)c(C)c3OC)N(C(C)=O)C2=O)c(OC)c(C)c1OC` (centres undefined) displayed a TGI greater than 100 µM.

As for `O=NN(CCCl)C(=O)NC1CCC(CC(=O)O)CC1` (centres undefined), the TGI was greater than 100 µM.

Regarding `C[C@H](C(=O)O)C(=O)NC(=O)N(Cc1ccccc1)N=O`, the TGI is greater than 100 µM.

Compound `NNC(=O)C(=O)NN=C(C(Cl)(Cl)CO)C(Cl)(Cl)CO` registered a TGI of 46.8 µM.

Turning to `COc1ccc(/C=C2\C(=O)N(NC(C)=O)c3ccccc32)cc1`, the TGI was greater than 100 µM.

On to `O=C1N[C@@H]2CCCC[C@@H]2C12CCCCC2`, for which the TGI was greater than 100 µM.

The compound `COc1ccc2ccccc2c1C1=NC(C)(C)CO1` registered a TGI greater than 100 µM.

For `NC1=NC(Cn2nc(-c3ccccc3)c3ccccc3c2=O)=NNC(=O)N1`, the TGI was greater than 100 µM.

In the case of `O=C(CCCC(=O)Nc1ccc(Cl)cc1Cl)CC(=O)c1ccc2ccccc2c1`, the TGI was greater than 100 µM.

`O=C(NCCc1ccccc1)C1C(=O)C(=O)N(CCc2ccccc2)C1=O` (centres undefined) showed a TGI greater than 100 µM.

Turning to `OC(c1ccccc1Br)(c1ccccc1Br)C(F)(F)F`, the TGI came to 74 µM.

For `NC(N)=NCCCC(NCc1c2ccccc2nc2ccccc12)C(=O)O` (centres undefined), the TGI was greater than 100 µM.

For `CC(=O)OC1COC(N2CCc3cc([N+](=O)[O-])ccc32)C(OC(C)=O)C1OC(C)=O` (centres undefined), the TGI was greater than 100 µM.

In the case of `CCOC(=O)C1S(=O)(=O)OCCOS1(=O)=O`, the TGI was greater than 100 µM.

`CC12OC(=O)C(C#N)C1(C)C1C(=O)CCCC12` (centres undefined) came in with a TGI greater than 100 µM.

The compound `Cc1nc2ccccc2c(=O)n1/N=C(\N=Nc1ccccc1Cl)c1ccccc1Cl` had a TGI greater than 100 µM.

Compound `CCc1cccc(CC)c1NC(=O)/C(Cl)=C(/Cl)C(=O)O` had a TGI of 46.5 µM.

In turn, `O=[N+]([O-])c1ccc(-c2ccc(C3=Nn4c(CNc5ccccc5Cl)nnc4SC3)o2)cc1` registered a TGI greater than 100 µM.

The compound `CC(=O)OCC(=O)[C@@]1(O)CC[C@H]2[C@@H]3C[C@H](C)C4=CC(=O)C=C[C@]4(C)[C@@]3(F)[C@@H](O)C[C@@]21C` yielded a TGI greater than 100 µM.

`Nc1nc(=S)c2c(ncn2CCO)[nH]1` came in with a TGI greater than 100 µM.

Consider `CC(C)Cc1ccc(C(C)/C=C2\CCC(CN(C)C)C2=O)cc1` (centres undefined), for which the TGI is 37.5 µM.

In turn, `COc1cc(/C=C/c2csnn2)cc(OC)c1OC` showed a TGI greater than 100 µM.

On to `c1ccc(C(c2ccccc2)c2ccccn2)cc1`, for which the TGI was greater than 100 µM.

On to `Cn1c(=O)c2nc3sc4c(n3c2n(C)c1=O)C(=O)c1ccccc1C4=O`, for which the TGI was greater than 100 µM.

Compound `N#CC1CC(c2ccccc2)Nc2cc(Cl)ccc2N1` (centres undefined) yielded a TGI greater than 100 µM.

In a further test the test system is MDA-N. As to the kind of experiment: NCI tumour cell line growth inhibition, 48 h.
For `[O]=[V]([OH])([OH])[OH]`, the GI50 was 94.6 µM and the TGI is greater than 100 µM.

Turning to `CCCCCCCCCCCC[C@@H](O)[C@H]1CC[C@H]([C@H](O)CC[C@H](O)[C@@H]2CC[C@@H](CCCCCCCC3=C[C@H](C)OC3=O)O2)O1`, the GI50 was greater than 50 µM and the TGI was greater than 50 µM.

Turning to `Cc1ccc(S(=O)(=O)NCCCCC(N)C(=O)O)cc1` (centres undefined), the TGI was greater than 100 µM.

Compound `CCOC(=O)/C(=C\c1cccc(C)c1)C(C)=O` gave a TGI of 31.4 µM.

On to `COC12C(COC(=O)NCCO)C3=C(C(=O)C(C)=C(N)C3=O)N1CC1NC12` (centres undefined), for which the TGI is greater than 264 µM.

For the compound `O=C(O)CN(CCN(CC(=O)O)CC(=O)O)CC(=O)O.[Mn+2]`, the GI50 was greater than 100 µM and the TGI was greater than 100 µM.

In turn, `CCO/C=C1\SC(=S)N(c2ccc(OCC)cc2)C1=O` displayed a TGI greater than 100 µM.

`NC(N)=NCCCC(NCc1c2ccccc2nc2ccccc12)C(=O)O` (centres undefined): the TGI is greater than 100 µM.

As to `CC(=O)O[C@H]1CC2C(C3CC[C@H](C(C)CCC(=O)O)[C@]31C)[C@H](OC(C)=O)C[C@@H]1CC3(CC[C@]21C)OOC1(CCC(C)CC1)OO3` (some centres undefined), the TGI is 19.9 µM and 15 µM.

`O=C1c2ccccc2C(=O)c2c(NC3CCCCC3)ccc(Nc3ccc(S(=O)(=O)O)cc3)c21` had a TGI greater than 100 µM.

Turning to `OCC1CC[N-]CC1.OCC1CC[N-]CC1.[Cl][Pt+2]([Cl])([Cl])[Cl]`, the GI50 is 28.9 µM.

In turn, `CC(C)Cc1ccc(C(C)/C=C2\CCC(CN(C)C)C2=O)cc1` (centres undefined) gave a TGI of 22.2 µM.

As for `CCCCCC/C=C\CCCCCCCCC(=O)c1cccc(OC)c1OC`, the TGI was greater than 100 µM.

On to `Cn1c(=O)c2nc3sc4c(n3c2n(C)c1=O)C(=O)c1ccccc1C4=O`, for which the TGI was greater than 100 µM.

The next test relates to P388 leukemia. As to the kind of experiment: NCI tumour cell line growth inhibition, 48 h.
As to `O=NN(CCCl)C(=O)NC1CCC(CC(=O)O)CC1` (centres undefined), the TGI was > 62.3 µM and 16.7 µM.

For the next test, the system named is P388/ADR leukemia. Kind of test: NCI tumour cell line growth inhibition, 48 h.
With `O=NN(CCCl)C(=O)NC1CCC(CC(=O)O)CC1` (centres undefined), the TGI is > 100 µM and 13.7 µM.

Another test concerns RXF-631 renal. As to the kind of experiment: NCI tumour cell line growth inhibition, 48 h.
For the compound `CCOC(=O)C1=C(NC)OCC1=O`, the TGI is greater than 100 µM.

In the case of `CCOC(=O)C1(C)CCC(C(C(=O)O)C(=O)O)CC1=O` (centres undefined), the TGI was greater than 100 µM.

Compound `COC(=O)C1=C(C(=O)OC)C2(c3ccccc3)OC1(c1ccccc1)c1cc3ccccc3cc12` had a TGI of 4.69 µM.

In turn, `CC1NOC(=O)C1N=Nc1ccc(Cl)cc1Cl` (centres undefined) displayed a TGI greater than 100 µM.

`CCOC(=O)/C(=C/c1ccccn1)C(=O)c1ccccc1`: the TGI was found to be 28.9 µM.

`O=C(c1ccccc1)[C@H]1Nc2ccc(Cl)cc2[C@H]2CCC[C@@H]12` yielded a TGI greater than 100 µM.

As to `COc1ccc2nc(NC(=O)C(=O)CC(=O)c3ccc([N+](=O)[O-])cc3)sc2c1`, the TGI is greater than 100 µM.

For `NNC(=O)C(=O)NN=C(C(Cl)(Cl)CO)C(Cl)(Cl)CO`, the TGI amounted to 55.7 µM.

On to `COc1ccc(/C=C2\C(=O)N(NC(C)=O)c3ccccc32)cc1`, for which the TGI was greater than 100 µM.

`O=C1N[C@@H]2CCCC[C@@H]2C12CCCCC2` gave a TGI greater than 100 µM.

As to `COc1ccc2ccccc2c1C1=NC(C)(C)CO1`, the TGI was greater than 100 µM.

As for `O=C(CCCC(=O)Nc1ccc(Cl)cc1Cl)CC(=O)c1ccc2ccccc2c1`, the TGI is greater than 100 µM.

`O=C(NCCc1ccccc1)C1C(=O)C(=O)N(CCc2ccccc2)C1=O` (centres undefined): the TGI was greater than 100 µM.

Compound `CCOC(=O)C1S(=O)(=O)OCCOS1(=O)=O` showed a TGI greater than 100 µM.

In the case of `Cc1nc2ccccc2c(=O)n1/N=C(\N=Nc1ccccc1Cl)c1ccccc1Cl`, the TGI was greater than 100 µM.

`CC(=O)OCC(=O)[C@@]1(O)CC[C@H]2[C@@H]3C[C@H](C)C4=CC(=O)C=C[C@]4(C)[C@@]3(F)[C@@H](O)C[C@@]21C` displayed a TGI greater than 100 µM.

`c1ccc(C(c2ccccc2)c2ccccn2)cc1`: the TGI is greater than 100 µM.

Turning to `Cn1c(=O)c2nc3sc4c(n3c2n(C)c1=O)C(=O)c1ccccc1C4=O`, the TGI is greater than 100 µM.

A further test relates to SN12K1 renal. Kind of test: NCI tumour cell line growth inhibition, 48 h.
In the case of `O=NN(CCCl)C(=O)NC1CCC(CC(=O)O)CC1` (centres undefined), the TGI was greater than 100 µM.

The test system of the next test is XF 498 CNS. As to the kind of experiment: NCI tumour cell line growth inhibition, 48 h.
In turn, `CCOC(=O)C1=C(NC)OCC1=O` came in with a TGI greater than 100 µM.

As for `CC1NOC(=O)C1N=Nc1ccc(Cl)cc1Cl` (centres undefined), the TGI was 45 µM.

As to `O=C1NC(=O)C2C(=O)NC(=O)C1C2Cc1ccco1` (centres undefined), the TGI was greater than 100 µM.

Take `CCOC(=O)/C(=C/c1ccccn1)C(=O)c1ccccc1`: the TGI came out at 30.3 µM.

Consider `O=C(c1ccccc1)[C@H]1Nc2ccc(Cl)cc2[C@H]2CCC[C@@H]12`, for which the TGI turned out to be 54.2 µM.

`COc1ccc2nc(NC(=O)C(=O)CC(=O)c3ccc([N+](=O)[O-])cc3)sc2c1` yielded a TGI greater than 100 µM.

`CC(=O)Nc1ccc(C2CC(c3ccc([N+](=O)[O-])cc3)=Nc3ccccc3S2=O)cc1` (centres undefined): the TGI worked out at 55.8 µM.

In turn, `O=NN(CCCl)C(=O)NC1CCC(CC(=O)O)CC1` (centres undefined) yielded a TGI greater than 100 µM.

For `C[C@H](C(=O)O)C(=O)NC(=O)N(Cc1ccccc1)N=O`, the TGI is greater than 100 µM.

The compound `NNC(=O)C(=O)NN=C(C(Cl)(Cl)CO)C(Cl)(Cl)CO` gave a TGI greater than 100 µM.

In turn, `COc1ccc(/C=C2\C(=O)N(NC(C)=O)c3ccccc32)cc1` yielded a TGI greater than 100 µM.

The compound `O=C1N[C@@H]2CCCC[C@@H]2C12CCCCC2` showed a TGI greater than 100 µM.

`COc1ccc2ccccc2c1C1=NC(C)(C)CO1` displayed a TGI greater than 100 µM.

As to `O=C(NCCc1ccccc1)C1C(=O)C(=O)N(CCc2ccccc2)C1=O` (centres undefined), the TGI is greater than 100 µM.

As to `OC(c1ccccc1Br)(c1ccccc1Br)C(F)(F)F`, the TGI was 38.2 µM.

On to `CC(=O)OC1COC(N2CCc3cc([N+](=O)[O-])ccc32)C(OC(C)=O)C1OC(C)=O` (centres undefined), for which the TGI was greater than 100 µM.

For `CCOC(=O)C1S(=O)(=O)OCCOS1(=O)=O`, the TGI was greater than 100 µM.

`CC12OC(=O)C(C#N)C1(C)C1C(=O)CCCC12` (centres undefined) showed a TGI greater than 100 µM.

In turn, `Cc1nc2ccccc2c(=O)n1/N=C(\N=Nc1ccccc1Cl)c1ccccc1Cl` displayed a TGI of 26.8 µM.

Compound `CCc1cccc(CC)c1NC(=O)/C(Cl)=C(/Cl)C(=O)O` came in with a TGI of 46.5 µM.

Turning to `O=[N+]([O-])c1ccc(-c2ccc(C3=Nn4c(CNc5ccccc5Cl)nnc4SC3)o2)cc1`, the TGI was greater than 100 µM.

Compound `CCCC(=O)CC(C)C(=O)C(=O)NC12CC3CC(CC(C3)C1)C2` (centres undefined) gave a TGI greater than 100 µM.

For the compound `CC(=O)OCC(=O)[C@@]1(O)CC[C@H]2[C@@H]3C[C@H](C)C4=CC(=O)C=C[C@]4(C)[C@@]3(F)[C@@H](O)C[C@@]21C`, the TGI was greater than 100 µM.

`CC(C)Cc1ccc(C(C)/C=C2\CCC(CN(C)C)C2=O)cc1` (centres undefined) returned a TGI of 36.5 µM.

Take `COc1cc(/C=C/c2csnn2)cc(OC)c1OC`: the TGI was greater than 100 µM.

The compound `c1ccc(C(c2ccccc2)c2ccccn2)cc1` had a TGI greater than 100 µM.

As to `Cn1c(=O)c2nc3sc4c(n3c2n(C)c1=O)C(=O)c1ccccc1C4=O`, the TGI was greater than 100 µM.

Take `N#CC1CC(c2ccccc2)Nc2cc(Cl)ccc2N1` (centres undefined): the TGI was found to be 92 µM.
